Data as given in US20140024638A1, “TREATMENT OF COGNITIVE DYSFUNCTION IN SCHIZOPHRENIA” (TARGACEPT, INC., priority 2011, published 2014).
Entries after “also recorded” stand apart in the source; their conditions may differ.

How the values were obtained:
[1] = tested on: patients with schizophrenia; assay: CogState 1-Back task (working memory), Phase 2 trial; type: in vivo, human; conditions: for CogState 1-Back: Mean (SE): tobacco users meeting data integrity criteria; for CogState 1-Back: Mean (SEM): total population, subjects meeting data integrity criteria
Experimental: (§1) The double blind, placebo controlled Phase 2 trial was conducted at 7 sites in the United States and 12 sites in India. […] Of the randomized patients, approximately 69% were male and approximately 46% were users of tobacco products. […] The primary efficacy outcome measure was GMLT, and the trial included a number of other scales as secondary efficacy outcome measures.

[2] = tested on: patients with schizophrenia; assay: CogState Schizophrenia Battery Composite score, Phase 2 trial; type: in vivo, human; conditions: for CogState Composite score: Mean (SE): tobacco users meeting data integrity criteria; for CogState Composite score: Mean (SEM): total population, subjects meeting data integrity criteria
Experimental: As provided in the above-referenced brochure, CogState is a provider of cognitive testing products and services that predominantly caters to the global pharmaceutical industry. The Schizophrenia Cognitive Test Battery covers all domains identified by MATRICS initiative; requires around 35 minutes for administration; is sensitive to the effects of novel compounds and licensed medication; is sensitive to the effects of medication in groups or individual patients; and the outcome measures are related to functional status.
as §1

[3] = tested on: patients with schizophrenia; assay: CogState International Shopping List (verbal learning), Phase 2 trial; design: species or system human; conditions: in vivo
Experimental: as §1

[4] = tested on: patients with schizophrenia; assay: Phase 2 trial, safety and tolerability; type: in vivo, human
Experimental: as §1

O=C(N[C@@H]1C2CCN(CC2)[C@H]1Cc1cccnc1)c1cc2ccccc2o1 (single isomer, unassigned) [TC-5619] was tested, and the “CogState 1-back (working memory), result in words” value ([1]; in vivo) was “statistically significant results of improvement”, the “CogState 1-Back: Mean (SE)” value ([1]; Week 4, 1 mg daily, 1-tailed p = 0.605) was 0.005 (0.021); p = 0.605 and the “CogState 1-Back: Mean (SE)” value ([1]; Week 8, 5 mg daily, 1-tailed p = 0.329) was −0.009 (0.021); p = 0.329. For the same compound, the “CogState 1-Back: Mean (SE)” value ([1]; Week 12, 25 mg daily, 1-tailed p = 0.020) was −0.042 (0.020); p = 0.020, the “CogState 1-Back: Mean (SEM)” value ([1]; Week 4, 1 mg daily, 1-tailed p = 0.691) was 0.007 (0.014); p = 0.691 and the “CogState 1-Back: Mean (SEM)” value ([1]; Week 8, 5 mg daily, 1-tailed p = 0.647) was 0.005 (0.015); p = 0.647. The “CogState 1-Back: Mean (SEM)” value ([1]; Week 12, 25 mg daily, 1-tailed p = 0.042) was −0.024 (0.014); p = 0.042, the “CogState composite score, result in words” value ([2]; in vivo) was “statistically significant results of improvement” and the “CogState Composite score: Mean (SE)” value ([2]; Week 4, 1 mg daily, 1-tailed p = 0.471) was 0.007 0.099); p = 0.471. The “CogState Composite score: Mean (SE)” value ([2]; Week 8, 5 mg daily, 1-tailed p = 0.614) was −0.029 (0.101); p = 0.614, the “CogState Composite score: Mean (SE)” value ([2]; Week 12, 25 mg daily, 1-tailed p = 0.098) was 0.129 0.100); p = 0.098 ^ and the “CogState Composite score: Mean (SEM)” value ([2]; Week 4, 1 mg daily, 1-tailed p = 0.838) was −0.066 (0.066); p = 0.838. For the same compound, the “CogState Composite score: Mean (SEM)” value ([2]; Week 8, 5 mg daily, 1-tailed p = 0.821) was −0.062 .068); p = 0.821^, the “CogState Composite score: Mean (SEM)” value ([2]; Week 12, 25 mg daily, 1-tailed p = 0.326) was 0.030 0.067); p = 0.326 ^ and the “CogState International Shopping List (verbal learning), result in words” value [3] was “statistically significant results of improvement”. The “discontinuations due to adverse events, difference to placebo dose group” value ([4]; Phase 2 trial) was “no clinically significant difference”, the tolerability ([4]; Phase 2 trial, 12 weeks, 1/5/25 mg daily, listed as (2S,3R)—N-(2-((3-pyridinyl)methyl)-1-azabicyclo[2.2.2]oct-3-yl)benzofuran-2-carb) was “well tolerated; also recorded: favorable tolerability profile” and the “serious adverse events in the dose group” value ([4]; one also in placebo dose group, considered by the investigator as not drug related) was “one”. For the same compound, the “nausea (most frequent adverse event more common than in placebo cohort)” value ([4]; placebo 0%, mild to moderate in severity, never led to patient dropout) was 5%.
